Measurements published in patent publication US6306847A, “Condensed purine derivatives” (Kyowa Hakko Kogyo Co., Ltd., priority 1996, dated 2001).
Where a name gives a salt, the structure may show the parent alone. Read-outs that look alike come from different tables or passages of the source.

Legend:
[1] = molecular target: T1, human adenosine A3 receptors (Homo sapiens, UniProt P0DMS8); experiment: Test of adenosine A3 receptor binding ([125I]AB-MECA, transfected HEK293 cell homogenate); conditions: for inhibition at 0.1 µM: read-out: The rate of inhibition (%) 10^-7 M; for inhibition at 0.01 µM: read-out: The rate of inhibition (%) 10^-8 M
T1 construct: expressed in transfected cells; host or cells: HEK293
T1 sequence (P0DMS8 1-318): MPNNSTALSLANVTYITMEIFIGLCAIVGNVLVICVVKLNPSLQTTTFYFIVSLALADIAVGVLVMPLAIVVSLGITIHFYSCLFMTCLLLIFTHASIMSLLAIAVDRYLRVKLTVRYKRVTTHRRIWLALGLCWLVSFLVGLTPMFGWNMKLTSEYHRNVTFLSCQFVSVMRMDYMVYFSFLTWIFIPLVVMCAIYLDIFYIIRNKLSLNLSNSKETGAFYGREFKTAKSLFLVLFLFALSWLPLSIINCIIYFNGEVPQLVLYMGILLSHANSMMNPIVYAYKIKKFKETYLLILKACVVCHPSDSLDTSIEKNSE
Method: The transfected HEK293 cells that expressed the human adenosine A3 receptors were homogenized in 5 mM tris(hydroxymethyl)aminomethane hydrochloric acid buffer containing 5 mM magnesium chloride (pH 7.6) by a Teflon homogenizer (Iuchiseieido Corp.). The resultant suspension was centrifuged (4000×g, 20 minutes), and a 50 mM tris(hydromethyl)aminomethane/10 mM magnesium chloride/hydrochloric acid buffer (pH 7.6) (referred to as "the Tris-HCl buffer" hereinafter) was added to the precipitate to generate the cell suspension ( the protein concentration 0.25 mg/ml). To the cell suspension was added adenosine deaminase so that the concentration was 2 U/ml, and the resultant mixture was used in the following binding experiment.
The glass fiber filter was transferred to a polypropylene tube, and the radioactivity was measured by a gamma counter (Packard Corp.).
(Rate of inhibition)=(A-B)/(C-D)×100
A: Amount of binding in the presence of the test compound
B: Amount of non-specific binding
C: Amount of total binding
D: Amount of non-specific binding

[2] = system: ddY mice; conditions: mouse, in vivo
Excerpt: A group consisting of three ddY mice (Japanese SLC) having a body weight of 19 to 21 g was used. One week after oral administration of compound 5, death of the mice was observed.

[3] = system: compound 48/80 induced pruritic action; experiment: Test of inhibition of compound 48/80 induced pruritic action (scratching behavior in mice); format: in vivo, ddy mice; conditions: for (A) The number of scratching behavior/10 minutes: compound 48/80 0.5 mg/kg s.c., n=10; for (B) The rate of inhibition (%): number of scratching behavior relative to control group
Method: A group consisting of 10 ddy mice (Japanese SLC) having a body weight of […] was used in the test. After compound 5 was orally administered, 0.5 mg/kg of compound 48/80 was subcutaneously administered in a volume of 0.1 ml per 20 g. 10 minutes after administration of compound 48/80, the number of scratching behavior was measured for 10 minutes. The rate of inhibition of the group of mice administered with compound 5 relative to the number of scratching behavior of a control group was calculated, and ED50 was calculated from the rate of inhibition.

[4] = 10^-7 M test compound, [125I]AB-MECA 0.1 nM
[5] = 10^-8 M test compound, [125I]AB-MECA 0.1 nM

SMILES	inhibition at 0.1 µM [1, 4] [%]	inhibition at 0.01 µM [1, 5] [%]	further results
CCN1C(=O)N2CCN=C2c2[nH]c(-c3ccc(Br)cc3)nc21 [Compound 1, 2-(p-Bromophenyl)-4-ethyl-1,4,7,8-tetrahydro-5H-imidazo[2,1-i]purine-5-one hydrochloride]			inhibition at 0.1 µM [1]: 97%; inhibition at 0.01 µM [1]: 88%
CCN1C(=O)N2CCCN=C2c2[nH]c(-c3ccc(Br)cc3)nc21 [Compound 2, 2-(p-Bromophenyl)-4-ethyl-1,4,5,7,8,9-hexahydropyrimido [2,1-i]purine-5-onehydrochloride]	55	29	
CCN1C(=O)N2CC(C)N=C2c2[nH]c(-c3ccc(Br)cc3)nc21 (centres unmarked) [Compound 3, 2-(p-Bromophenyl)-4-ethyl-8-methyl-1,4,7,8-tetrahydro-5H-imidazo [2,1-i]-purine-5-one hydrochloride]			inhibition at 0.1 µM [1]: 96%; inhibition at 0.01 µM [1]: 65%
CCC1CN2C(=O)N(CC)c3nc(-c4ccc(Br)cc4)[nH]c3C2=N1 (centres unmarked) [Compound 4, 2-(p-Bromophenyl)-4,8-diethyl-1,4,7,8-tetrahydro-5H-imidazo[2,1-i]purine-5-one hydrochloride]			inhibition at 0.1 µM [1]: 90%; inhibition at 0.01 µM [1]: 73%
CCCN1C(=O)N2CCN=C2c2[nH]c(-c3ccc(Br)cc3)nc21.Cl [Compound 5, 2-(p-Bromophenyl)-4-propyl-1,4,7,8-tetrahydro-5H-imidazo [2,1-i]purine-5-one hydrochloride]			death of the mice [2]: no death was observed; (A) The number of scratching behavior/10 minutes ([3]; 30 mg/kg p.o.): 10.70 ± 4.45 /10 minutes; (B) The rate of inhibition (%) ([3]; 30 mg/kg p.o.): 34.0%; (A) The number of scratching behavior/10 minutes ([3]; 100 mg/kg p.o.): 7.60 ± 3.12 /10 minutes; (B) The rate of inhibition (%) ([3]; 100 mg/kg p.o.): 53.1%; (A) The number of scratching behavior/10 minutes ([3]; 300 mg/kg p.o.): 6.00 ± 2.88 /10 minutes; (B) The rate of inhibition (%) ([3]; 300 mg/kg p.o.): 63.0%; ED50 ([3]; Mus musculus, po, calculated from the rate of inhibition): 96.8 mg/kg; inhibitory action on the compound 48/80 induced itching ([3]; p.o., mice): exhibited its inhibitory action
CCCN1C(=O)N2CCCN=C2c2[nH]c(-c3ccc(Br)cc3)nc21 [Compound 6, hydrochloride]		98	
CCCN1C(=O)N2CC(CC)N=C2c2[nH]c(-c3ccc(Br)cc3)nc21 (centres unmarked) [Compound 8, 2-(p-Bromophenyl)-8-ethyl-4-propyl-1,4,7,8-tetrahydro-5H-imidazo[2,1-i]purine-5-one hydrochloride]			inhibition at 0.1 µM [1]: 96%
CCOC(=O)/C=C/c1ccc(-c2nc3c([nH]2)C2=NCCN2C(=O)N3CC)cc1 [Compound 13, Ethyl (E)-4-(4-ethyl-1,4,7,8-tetrahydro-5H-imidazo [2,1-i]purine-5-one-2-yl)cinnamate]	76	75	
CCOC(=O)/C=C/c1ccc(-c2nc3c([nH]2)C2=NCCCN2C(=O)N3CC)cc1 [Compound 14, Ethyl (E)-4-(4-ethyl-1,4,5,7,8,9-hexahydropyrimido [2,1-i]purine-5-one-2-yl)cinnamate]	55	29	
CCN1C(=O)N2CCCN=C2c2[nH]c(-c3ccc(/C=C/C(=O)O)cc3)nc21 [Compound 15, (E)-4-(4-Ethyl-1,4,5,7,8,9-hexahydropyrimido [2,1-i]-purine-5-one-2-yl)cinnamic acid]	66	21	
CCOC(=O)/C=C/c1ccc(-c2nc3c([nH]2)C2=NC(CC)CN2C(=O)N3CC)cc1 (centres unmarked) [Compound 16, Ethyl (E)-4-(4,8-diethyl-1,4,7,8-tetrahydro-5H-imidazo-[2,1-i]purine-5-one-2-yl)cinnamate]	92	17	
CCC1CN2C(=O)N(CC)c3nc(-c4ccc(/C=C/C(=O)O)cc4)[nH]c3C2=N1 (centres unmarked) [Compound 17, (E)-4-(4,8-Diethyl-1,4,7,8-tetrahydro-5H-imidazo [2,1-i]-purine-5-one-2-yl)cinnamic acid]	70	36	
CCC1CN2C(=O)N(C)c3nc(-c4ccc(Br)cc4)[nH]c3C2=N1 (centres unmarked) [Compound 25, 2-(p-Bromophenyl)-8-ethyl-4-methyl-1,4,7,8-tetrahydro-5H-imidazo[2,1-i]purine-5-one hydrochloride]			inhibition at 0.1 µM [1]: 97%; inhibition at 0.01 µM [1]: 94%
CCCCN1C(=O)N2CCN=C2c2[nH]c(-c3ccc(Br)cc3)nc21 [Compound 26, 2-(p-Bromophenyl)-4-n-butyl-1,4,7,8-tetrahydro-5H-imidazo[2,1-i]purine-5-one hydrochloride]			inhibition at 0.01 µM [1]: 85%
CCCN1C(=O)N2C[C@@H](C(C)C)N=C2c2[nH]c(-c3ccc(Br)cc3)nc21 [Compound 32, (R)-2-(p-Bromophenyl)-8-isopropyl-4-propyl-1,4,7,8-tetrahydro-5H-imidazo[2,1-i]purine-5-one]	120	84	
CCCN1C(=O)N2C[C@H](C(C)C)N=C2c2[nH]c(-c3ccc(Br)cc3)nc21 [Compound 33, (S)-2-(p-Bromophenyl)-8-isopropyl-4-propyl-1,4,7,8-tetrahydro-5H-imidazo[2,1-i]purine-5-one]	95	89	
CCCN1C(=O)N2C[C@@H](c3ccccc3)N=C2c2[nH]c(-c3ccc(Br)cc3)nc21 [Compound 35, (R)-2-(p-Bromophenyl)-8-phenyl-4-propyl-1,4,7,8-tetrahydro-5H-imidazo[2,1-i]-purine-5-one]	52	94	
